Reference: patent US20260217729A1, “HALOGEN-S[…] AMIDE DERIVATIVE, PREPARATION METHOD THEREFOR, AND USE THEREOF” (HANGZHOU ADCORIS BIOPHARMA CO., LTD, priority 2023, published 2026)
Like-named read-outs stand apart in the source and are kept apart here.

How the values were obtained:
Format in all cases: cell-based
[1] = test system: human lung cancer cells NCI-H1975; assay: Tumor cell growth inhibitory activity (CCK-8), NCI-H1975; conditions: 72 h incubation, read-out: IC50 for inhibiting the growth of tumor cells, NCI-H1975
Procedure: (§1) Human esophageal cancer cells OE33, human breast cancer cells MDA-MB-231, human gastric cancer cells NCI-N87, human lung cancer cells NCI-H1975, human esophageal cancer cells TE12, human breast cancer cells SK-BR-3, etc., were cultured in RPMI1640 (Cellmax) supplemented with 10% fetal bovine serum (Cellmax). Tumor cells in the exponential growth phase were diluted to a concentration of 1×10^5 cells/mL with culture medium and added to 96-well cell culture plates at 100 μL per well, then returned and incubated overnight in a 37° C. incubator with 5% CO2. On the following day, the compounds were diluted to concentrations of 10000 nM, 2000 nM, 400 nM, 80 nM, 16 nM, 3.2 nM, 0.64 nM, and 0.13 nM with culture medium, and the diluted compounds were added to the 96-well cell culture plates at 2 μL per well, with three replicate wells for each concentration. Negative control and blank control groups without addition of compounds were added with 2 μL of the dilution liquid per well. After the addition of the compounds, the plates were returned to the 37° C. incubator with 5% CO2 to continue the incubation for 72 h. After the incubation, the cell culture plates were removed, and the culture medium in the plates was aspirated using a pipette. Then, 100 μL of culture medium containing 10% CCK-8 was added to each well, and the plates were incubated at 37° C. for 3 h. After the incubation, the plates were removed, kept in the dark, and placed in an ELISA plate. Absorbance was measured at 630 nm as the reference wavelength and 450 nm as the test wavelength. Based on the absorbance values, the IC50 values (Table 1) were calculated using the four-parameter logistic regression method in GraphPad.

[2] = test system: human breast cancer cells SK-BR-3; assay: Tumor cell growth inhibitory activity (CCK-8), SK-BR-3; conditions: SK-BR-3 cells, 72 h incubation, read-out: IC50 for inhibiting the growth of tumor cells, SK-BR-3
Procedure: as §1

[3] = test system: Human esophageal cancer cells OE33; assay: Tumor cell growth inhibitory activity (CCK-8), OE33; conditions: 72 h incubation, read-out: IC50 for inhibiting the growth of tumor cells, OE33
Procedure: as §1

[4] = test system: human gastric cancer cells NCI-N87; assay: Tumor cell growth inhibitory activity (CCK-8), NCI-N87; conditions: 72 h incubation, read-out: IC50 for inhibiting the growth of tumor cells, NCI-N87
Procedure: as §1

[5] = test system: human esophageal cancer cells TE12; assay: Tumor cell growth inhibitory activity (CCK-8), TE12; conditions: 72 h incubation, read-out: IC50 for inhibiting the growth of tumor cells, TE12
Procedure: as §1

[6] = test system: human breast cancer cells MDA-MB-231; assay: Tumor cell growth inhibitory activity (CCK-8), MDA-MB-231; conditions: MDA-MB-231 cells, 72 h incubation, read-out: IC50 for inhibiting the growth of tumor cells, MDA-MB-231
Procedure: as §1

Row | SMILES | IC50 ([1]; Homo sapiens) [nM] | IC50 ([2]; Homo sapiens) [nM] | IC50 ([3]; Homo sapiens) [nM] | IC50 ([4]; Homo sapiens) [nM] | IC50 ([5]; Homo sapiens) [nM] | IC50 ([6]; Homo sapiens) [nM] | IC50 [1] [nM] | IC50 [2] [nM] | IC50 [3] [nM] | IC50 [4] [nM] | IC50 [5] [nM] | IC50 [6] [nM]
1 | CC[C@@]1(O)C(=O)OCc2c1cc1n(c2=O)Cc2c-1nc1cc(F)c(C)c3c1c2[C@@H](NC(=O)[C@@H]1CC(F)(F)CN1)CC3 [Compound 4, 4′,4′-difluoroprolyl exatecan] | 40.6 | 0.35 | 0.755 | 0.101 | 11.2 | 200 | – | – | – | – | – | –
2 | CC[C@@]1(O)C(=O)OCc2c1cc1n(c2=O)Cc2c-1nc1cc(F)c(C)c3c1c2[C@@H](NC(=O)C(F)C(N)=O)CC3 (stereo partly drawn) [Compound 1, N-(2′-fluoro-3′-amino-3′-oxo-propanoyl) exatecan] | – | – | – | – | – | – | 598 | 18 | 37.8 | 12.1 | 341 | > 1000
3 | CC[C@@]1(O)C(=O)OCc2c1cc1n(c2=O)Cc2c-1nc1cc(F)c(C)c3c1c2[C@@H](NC(=O)CNCC(F)(F)F)CC3 [Compound 2, N—(N-(2′-trifluoroethyl)aminoacetyl)exatecan] | – | – | – | – | – | – | 47.3 | 1 | 1.09 | 0.443 | 12.7 | 238
4 | CC[C@@]1(O)C(=O)OCc2c1cc1n(c2=O)Cc2c-1nc1cc(F)c(C)c3c1c2[C@@H](NC(=O)CO)CC3 [Dxd, reference compound] | 73.6 | 4.46 | 6.55 | 1.35 | 21.5 | 207 | – | – | – | – | – | –
5 | CC[C@@]1(O)C(=O)OCc2c1cc1n(c2=O)Cc2c-1nc1cc(F)c(C)c3c1c2[C@H](NC(=O)C(C)(F)F)CC3 [Compound 6, 2′,2′-difluoropropionyl exatecan] | 38.5 | 0.32 | 0.615 | 0.165 | 7.61 | 143 | – | – | – | – | – | –
6 | CC[C@@]1(O)C(=O)OCc2c1cc1n(c2=O)Cc2c-1nc1cc(F)c(C)c3c1c2[C@@H](NC(=O)C(F)F)CC3 [Compound 5, 2′,2′-difluoroacetyl exatecan] | 13.7 | 2.06 | 4.34 | 0.873 | 18.5 | 403 | – | – | – | – | – | –
7 | CC[C@@]1(O)C(=O)OCc2c1cc1n(c2=O)Cc2c-1nc1cc(F)c(C)c3c1c2[C@@H](NC(=O)C(N)C(F)(F)F)CC3 (stereo partly drawn) [Compound 3, 2′-amino-3′,3′,3′-trifluoropropanoyl exatecan] | 56.2 | 3.01 | 5.61 | 1.74 | 21.1 | 262 | – | – | – | – | – | –
